Measurements: patent US8415156B2, “Recombinant laminin-521” (Biolamina AB, priority 2010, dated 2013)

Tested on: Akt and MEK1
Experiment: Western blot of pathway inhibitor treated cells
Format: cell-based, human
Details: cells collected one hour after plating on LN-521, vs DMSO control
Description: InSolutionTM LY 294002 (a specific […]), InSolutionTM Wortmannin (a specific PI3K inhibitor), and InSolutionTM 98059 (a specific MEK1/Erk inhibitor) were purchased from Calbiochem. Antibodies to phospho-Akt (#4060), total-Akt (#9272), phospho-Erk (#9101), and total-Erk (#9102) were obtained from Cell Signaling Technology. PathScan Phospho-Akt1 sandwich ELISA kit (#7160), PathScan total Akt1 sandwich ELISA kit (#7170), PathScan Phospho-Akt2 sandwich ELISA kit (#7048), and PathScan total Akt2 sandwich ELISA kit (#7046) were also purchased from Cell Signaling Technology. Antibodies to Calnexin (#ab10286) were obtained from Abcam. Function blocking antibodies to various integrin subunits, mouse isotype antibodies, and α-dystroglycan were purchased from Millipore. Since function blocking antibodies to αV (MAB1980) and α6 (MAB1378) were presented in a solution with sodium azide, before the inhibition of survival experiment all the antibodies to alpha integrin subunits were dialyzed thrice against O3 medium for 2 hours each time. Antibodies to Lutheran receptor and α-fetoprotein, as well as rat isotype control antibodies were obtained from R&D Systems. Antibodies to Oct4, Nanog, SSEA-4, smooth muscle actin and MAP-2 were purchased from Millipore. […] For the densitometry analysis the films were scanned at 2,400 dpi and analyzed by the […]5500 program (1D-Multi Line densitometry mode). […]

## COc1cccc(-c2cc(=O)c3ccccc3o2)c1N [PD 98059]
  efficacy of inhibitor treatment by western blot: confirmed
